This is an account of results in ChEMBL document CHEMBL5236615, “Discovery of Novel N-Heterocyclic-Fused Deoxypodophyllotoxin Analogues as Tubulin Polymerization Inhibitors Targeting the Colchicine-Binding Site for Cancer Treatment” (J Med Chem, 2022).

The source made the active and inactive calls. The rule behind the calls is not given here.

The nature of data set [1]: Tmax in Sprague-Dawley rat at 10 mg/kg, iv measured upto 8 hrs by LC/MS/MS analysis. The data set is classed as ADME, organism-based. To be noted: in vivo.
The nature of data set [2]: Toxicity in Balb/c mouse assessed as pathological changes in blood aspartate aminotransferase level at 20 mg/kg, ip administered for every 2 days for 14 days. It counts as organism-based. As to conditions: in vivo, 336 h, time 14 day.
The test system of data set [3] is MCF7. Briefly: Antiproliferative activity against human MCF7 cells assessed as survival rate at 20 nM measured after 72 hrs by MTT assay relative to control. The data set is classed as functional. In general terms: Tetrazolium dyes change colour on reduction, which living cells bring about.
The target in data set [4] is Tubulin beta (Homo sapiens) (UniProt P68371+Q9H4B7+Q13509+P04350+Q3ZCM7+P07437+Q13885+Q9BVA1+Q9BUF5+A6NNZ2). In words: Binding affinity to beta-tubulin colchicine binding site in human MCF-7 cells assessed as inhibition of EBI-beta-tubulin adduct band formation preincubated for 2 hrs followed by EBI addition and measured after 1.5 hrs by EBI competition based Western blotting analysis. The data set is classed as cell-based. To be noted: MCF7, dose 0.2-25 µM, time 3.5 hrs. (A western blot detects proteins with antibodies after separation by electrophoresis.)

Data set [5] in a line: MRT (0 to t) in Sprague-Dawley rat at 10 mg/kg, iv measured upto 8 hrs by LC/MS/MS analysis. The data set is classed as ADME, organism-based. To be noted: in vivo.
Data set [6] concerns MCF7. Briefly: Induction of apoptosis in human MCF7 cells assessed as upregulation of p-Bim L protein expression at 5 to 20 nM in presence of roscovitine measured after 24 hrs by Western blot analysis. It counts as functional, cell-based. To be noted: dose 5-20 nM.

For the molecule `COc1c(Cl)cc([C@@H]2c3cc4c(cc3C[C@H]3C(=O)NC(=O)N23)OCCO4)cc1Cl`, in data set [1], the Tmax (in general, the time at which the peak concentration occurs) came to 6.6 min. Moreover, the Activity entry is “Non-Toxic” in data set [2], 31.55% in data set [3] and “Dose-Dependent Effect” in data set [4]. For the same molecule, in data set [5], the mean residence time MRT last (in general, the average time that molecules of a dose stay in the body) at 8 h turned out to be 1.79 h. The result in data set [6] was inactive.
